From US9549930B2, “Combined systemic and topical treatment of disordered and/or prodromal stage tissue” (priority 2013, dated 2017)

Experiments:
[1] = cited from earlier work
[2] = cited from earlier work; remark: listed apart in the source
Herpes Zoster (HZV) = test: Case histories: systemic anti-viral drug alone for shingles; assay type: in vivo, human
Source text: A person with a clinical history of recurrent Herpes Zoster (HZV) (or in layman's terms, shingles) experienced a recurrent outbreak after a stressful week at work and a weekend in the sun following a trip to a tanning booth. (It is known that stress and UV-B can both trigger herpetic outbreaks.) This subject had their first episode with HZV about one year prior. They were diagnosed by their physician and given a prescription for Zovirax (acyclovir). They took the Zovirax, but experienced lesions lasting 3-4 weeks and experienced over 12 weeks of post-herpetic neuralgia. The previous episode included all the classic stages, including weeping, but only involved several very small lesions.
A person was vacationing in California when they developed a red rash and subsequent lesions on their right buttock. They were diagnosed with herpes zoster (shingles) on day 2, after first signs and symptoms were noted, and was prescribed valacyclovir (Valtrex) per label.
As […] to get to their home from California, they and their spouse elected to extend their time in California.
The patient initially went to the doctor in the early stages of the infection when it was only on their leg. The doctor diagnosed the condition as shingles and prescribed the patient Valtrex. […] The bumps were smaller but they kept spreading. The doctor advised them to keep taking the Valtrex. Once the patient finished the first prescription of Valtrex, the doctor provided a second Valtrex prescription. […] The sores remained the same size although the sores on the patient's leg were much larger than on their lower trunk.
A person had shingles on their neck and shoulders. Their sibling is a physician and diagnosed shingles and prescribed a nucleoside drug according to FDA approved labeling. The lesions had started to propagate down the affected dermatomes of the shoulder and neck. The lesions continued to progress despite anti-viral therapy.

[3] = Example 4, person, first HZV episode, Zovirax alone

Row | Structure (SMILES) | absorption from the gastrointestinal tract ([1]; after oral administration) | solubility in water [2] | duration of post-herpetic neuralgia (Herpes Zoster (HZV); [3]) | lesions lasting (Herpes Zoster (HZV); [3]) | bioavailability ([1]; oral administration, shown in U.S. Pat. No. 4,957,924) | state on day 18 after first signs, after completed regimen (Herpes Zoster (HZV); Example 6, Valtrex regimen as prescribed) | effect on shingles initially (Herpes Zoster (HZV); Example 6, person, Valtrex per label from day 2) | state of sores after first prescription finished (Herpes Zoster (HZV); Example 8, Valtrex alone) | course of lesions shortly after first doses (Herpes Zoster (HZV); Example 8, person, Valtrex alone)
1 | Nc1nc2c(ncn2COCCO)c(=O)[nH]1 [Aciclovir, 9-(2-hydroxyethoxymethyl)guanine] | poorly absorbed | poorly soluble in water | over 12 weeks | 3-4 weeks | – | – | – | – | –
2 | CC(C)[C@H](N)C(=O)OCCOCn1cnc2c(=O)[nH]c(N)nc21 [Valtrex] | – | – | – | – | improved bioavailability | still had open herpetic lesions | little noticeable effect initially | still open and large | the lesions spread up the patient's leg and to their lower trunk
